The values that follow come from patent US7825256B2, “Inducible nitric oxide synthase dimerization inhibitors” (Kalypsys, Inc., priority 2004, dated 2010).

Each structure is given as a SMILES string.

The test deals with T1, hiNOS (Homo sapiens, UniProt P35228).
T1 construct: expressed in transfected cells; host or cells: HEK293
Nature of the test: DAN assay, hiNOS expressed in transiently transfected HEK293 cells. The class given is cell-based. The following applies: HEK293 cells transiently transfected with hiNOS. The essentials: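 Human iNOS, nNOS or eNOS transiently expressed in HEK293 cells, with nNOS and eNOS needing added cofactors for activity. NO production is read as nitrite by fluorometry: 2,3-diaminonaphthalene forms fluorescent […], detecting 10 nM to 10 μM nitrite.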
Turning to `Cc1cc(CNC(=O)C2CCCN2Cc2cccc(C(F)(F)F)c2)nc(-n2ccnc2)n1` (stereo not drawn) [Example 108, 1-(3-Trifluoromethyl-benzyl)-pyrrolidine-2-carboxylic acid (2-imidazol-1-yl-6-methyl-pyrimidin-4-ylmethyl)-amide], the EC50 (as a rule, the concentration needed to bring the measured effect to its halfway point) was > 50000 nM.

Regarding `Cc1cc(CNC(=O)C2CCCN2Cc2ccc(OCCO)cc2)nc(-n2ccnc2)n1` (stereo not drawn) [Example 117, 1-[4-(2-Hydroxy-ethoxy)-benzyl]-pyrrolidine-2-carboxylic acid (2-imidazol-1-yl-6-methyl-pyrimidin-4-ylmethyl)-amide], the EC50 was > 50000 nM.

Consider `CNC(=O)C1CCN(CCNCc2ccc3c(c2)OCO3)C1c1cc(C)nc(-n2ccnc2)n1` (stereo not drawn) [Example 137, 2-(2-(1H-Imidazol-1-yl)-6-methylpyrimidin-4-yl)-1-(2-(benzo[d][1,3]dioxol-5-ylmethylamino)ethyl)-N-methylpyrrolidine-3-carboxamide], for which the 50% effective concentration (EC50) was < 1000 nM.

For the compound `Cc1cc(CNC(=O)C2CCCN2Cc2ccsc2)nc(-n2ccnc2)n1` (stereo not drawn) [Example 119, 1-Thiophen-3-ylmethyl-pyrrolidine-2-carboxylic acid (2-imidazol-1-yl-6-methyl-pyrimidin-4-ylmethyl)-amide], the EC50 is > 50000 nM.

With `CC(C)[C@H](Nc1nc(-n2ccnc2)ns1)C(=O)NCCc1ccc2c(c1)OCO2` [Example 24, (S)—N-(2-Benzo[1,3]dioxol-5-yl-ethyl)-2-(3-imidazol-1-yl-[1,2,4]thiadiazol-5-ylamino)-3-methyl-butyramide], the 50% effective concentration (EC50) is < 1000 nM.

With `CSc1ccc(CN(CCCNCc2ccc3c(c2)OCO3)c2nc(-n3ccnc3)ns2)cc1` [Example 104, N′-Benzo[1,3]dioxol-5-ylmethyl-N-(3-imidazol-1-yl-[1,2,4]thiadiazol-5-yl)-N-(4-methylsulfanyl-benzyl)-propane-1,3-diamine], the EC50 was < 1000 nM.

Consider `O=C(NCCc1ccc2c(c1)OCO2)[C@@H]1C[C@@H](O)CN1c1nc(-n2ccnc2)ns1` [Example 27, (2S,4R)-4-Hydroxy-1-(3-imidazol-1-yl-[1,2,4]thiadiazol-5-yl)-pyrrolidine-2-carboxylic acid (2-benzo[1,3]dioxol-5-yl-ethyl)amide], for which the half-maximal effective concentration (EC50) is < 1000 nM.

For `CCOC(=O)C1CCC(C(=O)NCCc2ccc3c(c2)OCO3)N1c1nc(-n2ccnc2)ns1` (racemic) [Example 94, 5-(2-Benzo[1,3]dioxol-5-yl-ethylcarbamoyl)-1-(3-imidazol-1-yl-[1,2,4]thiadiazol-5-yl)-pyrrolidine-2-carboxylic acid ethyl ester], the EC50 is < 1000 nM.

On to `CN(CCCNCc1ccc2c(c1)OCO2)c1nc(-n2cncn2)ns1` [Example 145, N′-Benzo[1,3]dioxol-5-ylmethyl-N-methyl-N-(3-[1,2,4]triazol-1-yl-[1,2,4]thiadiazol-5-yl)-propane-1,3-diamine], for which the concentration for a half-maximal effect (EC50) was > 50000 nM.

As for `CN(CCN1CCCC1c1nc(-n2ccnc2)ns1)Cc1ccc2c(c1)OCO2` (stereo not drawn) [Example 89, Benzo[1,3]dioxol-5-ylmethyl-{2-[2-(3-imidazol-1-yl-[1,2,4]thiadiazol-5-yl)-pyrrolidin-1-yl]-ethyl}-methyl-amine], the 50% effective concentration (EC50) was < 1000 nM.

With `O=C(NCCc1ccc2c(c1)OCCO2)[C@H]1C[C@H](O)CN1c1nc(-n2ccnc2)ns1` [Example 126, (2R,4S)-4-Hydroxy-1-(3-imidazol-1-yl-[1,2,4]thiadiazol-5-yl)-pyrrolidine-2-carboxylic acid [2-(2,3-dihydro-benzo[1,4]dioxin-6-yl)-ethyl]-amide], the EC50 is < 1000 nM.

For `C[C@H](Nc1nc(-n2ccnc2)ns1)C(=O)NCCc1ccc2c(c1)OCO2` [Example 23, (S)—N-(2-Benzo[1,3]dioxol-5-yl-ethyl)-2-(3-imidazol-1-yl-[1,2,4]thiadiazol-5-ylamino)-propionamide], the EC50 was < 1000 nM.

On to `Cc1cc(CNC(=O)C2CCCN2Cc2ccc(F)cc2)nc(-n2ccnc2)n1` (stereo not drawn) [Example 111, 1-(4-Fluoro-benzyl)-pyrrolidine-2-carboxylic acid (2-imidazol-1-yl-6-methyl-pyrimidin-4-ylmethyl)-amide], for which the concentration for a half-maximal effect (EC50) was > 50000 nM.

As for `Cc1cc(CNC(=O)C2CCCN2Cc2ccc(C(F)(F)F)cc2)nc(-n2ccnc2)n1` (stereo not drawn) [Example 107, 1-(4-Trifluoromethyl-benzyl)-pyrrolidine-2-carboxylic acid (2-imidazol-1-yl-6-methyl-pyrimidin-4-ylmethyl)-amide], the EC50 was > 50000 nM.

On to `Cc1cc(CNS(=O)(=O)NCCc2ccc3c(c2)OCO3)nc(-n2ccnc2)n1` [Example 71], for which the half-maximal effective concentration (EC50) was < 50000 nM.

In the case of `CN(CCCNCCc1ccc2c(c1)OCO2)c1nc(-n2ccnc2)ns1` [Example 87, N′-(2-Benzo[1,3]dioxol-5-ethyl)-N-(3-imidazol-1-yl-[1,2,4]thiadiazol-5-yl)-N-methyl-propane-1,3-diamine], the EC50 is < 1000 nM.

With `CN(CCNCCc1ccc2c(c1)OCO2)c1nc(-n2ccnc2)ns1` [Example 127, N′-(2-Benzo[1,3]dioxol-5-yl-ethyl)-N-(3-imidazol-1-yl-[1,2,4]thiadiazol-5-yl)-N-methyl-ethane-1,2-diamine], the EC50 was < 1000 nM.

For the compound `CN(CCCCNCc1ccc2c(c1)OCO2)c1nc(-n2ccnc2)ns1` [Example 48, N′-Benzo[1,3]dioxol-5-ylmethyl-N-(3-imidazol-1-yl-[1,2,4]thiadiazol-5-yl)-N-methyl-butane-1,4-diamine], the concentration for a half-maximal effect (EC50) was < 1000 nM.

With `Cc1cc(C(C)(C)/C=C/C(=O)NCc2ccc3c(c2)OCO3)nc(-n2ccnc2)n1` [Example 74, (E)-4-(2-(1H-Imidazol-1-yl)-6-methylpyrimidin-4-yl)-N-(benzo[d][1,3]dioxol-5-ylmethyl)-4-methylpent-2-enamide], the 50% effective concentration (EC50) was < 50000 nM.

For the compound `CN(CCCN(C)c1nc(-n2ccnc2)ns1)Cc1ccc2c(c1)OCO2` [Example 79, N-Benzo[1,3]dioxol-5-ylmethyl-N′-(3-imidazol-1-yl-[1,2,4]thiadiazol-5-yl)-N,N′-dimethyl-propane-1,3-diamine], the EC50 is < 1000 nM.

As for `c1cn(-c2nsc(N(CCCNCc3ccc4c(c3)OCO4)C3CC3)n2)cn1` [Example 32, N′-Benzo[1,3]dioxol-5-ylmethyl-N-cyclopropyl-N-(3-imidazol-1-yl-[1,2,4]thiadiazol-5-yl)-propane-1,3-diamine], the EC50 was < 1000 nM.

Consider `Cc1cc(C2C(c3nccs3)CCN2CCNCc2ccc3c(c2)OCO3)nc(-n2ccnc2)n1` (stereo not drawn) [Example 140, Benzo[1,3]dioxol-5-ylmethyl-{2-[2-(2-imidazol-1-yl-6-methyl-pyrimidin-4-yl)-3-thiazol-2-yl-pyrrolidin-1-yl]-ethyl}-amine], for which the EC50 is < 1000 nM.

Turning to `Cc1cc(C2CCCN2CC(=O)NCc2ccc3c(c2)OCO3)nc(-n2ccnc2)n1` (stereo not drawn) [Example 37, N-Benzo[1,3]dioxol-5-ylmethyl-2-[2-(2-imidazol-1-yl-6-methyl-pyrimidin-4-yl)-pyrrolidin-1-yl]-acetamide], the EC50 was < 1000 nM.

For `CC(NCCOCc1ccc2c(c1)OCO2)c1nc(-n2ccnc2)ns1` (stereo not drawn) [Example 65, [2-(Benzo[1,3]dioxol-5-ylmethoxy)-ethyl]-[1-(3-imidazol-1-yl-[1,2,4]thiadiazol-5-yl)-ethyl]-amine], the EC50 was < 1000 nM.

In the case of `NC(=O)CN(CCCNCc1ccc2c(c1)OCO2)c1nc(-n2ccnc2)ns1` [Example 54, 2-[{3-[(Benzo[1,3]dioxol-5-ylmethyl)-amino]-propyl}-(3-imidazol-1-yl-[1,2,4]thiadiazol-5-yl)-amino]-acetamide], the half-maximal effective concentration (EC50) was < 1000 nM.

`Cc1cc(C(C)(C)C(=O)NCCCc2ccc3c(c2)OCO3)nc(-n2ccnc2)n1` [Example 72, 2-(2-(1H-imidazol-1-yl)-6-methylpyrimidin-4-yl)-N-(3-(benzo[d][1,3]dioxol-5-yl)propyl)-2-methylpropanamide]: the EC50 was < 50000 nM.

Regarding `Cc1cc(C(C)N2CCC[C@@H]2C(=O)NCc2ccc3c(c2)OCO3)nc(-n2ccnc2)n1` (mixture of isomers) [Example 121, 1-[1-(2-Imidazol-1-yl-6-methyl-pyrimidin-4-yl)-ethyl]-pyrrolidine-2-carboxylic acid (benzo[1,3]dioxol-5-ylmethyl)-amide], the concentration giving a half-maximal response (EC50) was < 1000 nM.

Take `CNC(=O)C(NC(=O)CNCc1ccc2c(c1)OCO2)c1cc(C)nc(-n2ccnc2)n1` (stereo not drawn) [Example 42, 2-{2-[(Benzo[1,3]dioxol-5-ylmethyl)-amino]-acetylamino}-2-(2-imidazol-1-yl-6-methyl-pyrimidin-4-yl)-N-methyl-acetamide]: the concentration for a half-maximal effect (EC50) is < 1000 nM.

As for `CN(CCCN(C)c1nc(-n2ccnc2)ns1)Cc1ccc2c(c1)OCCO2` [Example 82, N-(2,3-Dihydro-benzo[1,4]dioxin-6-ylmethyl)-N′-(3-imidazol-1-yl-[1,2,4]thiadiazol-5-yl)-N,N′-dimethyl-propane-1,3-diamine], the EC50 is < 1000 nM.

For the compound `CN(CCCNCc1c(Cl)cccc1Cl)c1nc(-n2ccnc2)ns1` [Example 10, N′-(2,6-Dichloro-benzyl)-N-(3-imidazol-1-yl-[1,2,4]thiadiazol-5-yl)-N-methyl-propane-1,3-diamine], the EC50 was > 50000 nM.

Turning to `Cc1cc(CN(CC(N)=O)C(=O)NCCc2ccc3c(c2)OCO3)nc(-n2ccnc2)n1` [Example 70, (2-[3-(2-Benzo[1,3]dioxol-5-yl-ethyl)-1-(2-imidazol-1-yl-6-methyl-pyrimidin-4-ylmethyl)-ureido]-acetamide)], the EC50 is < 1000 nM.

For the compound `N#CCN(CCCNCc1ccc2c(c1)OCO2)c1nc(-n2ccnc2)ns1` [Example 60, [{3-[(Benzo[1,3]dioxol-5-ylmethyl)-amino]-propyl}-(3-imidazol-1-yl-[1,2,4]thiadiazol-5-yl)-amino]-acetonitrile], the EC50 was < 1000 nM.

On to `Cc1cc(C(C)(C)CCC(=O)NCc2ccc3c(c2)OCO3)nc(-n2ccnc2)n1` [Example 75, 4-(2-(1H-Imidazol-1-yl)-6-methylpyrimidin-4-yl)-N-(benzo[d][1,3]dioxol-5-ylmethyl)-4-methylpentanamide], for which the 50% effective concentration (EC50) is < 1000 nM.
